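Each compound was tested at five concentrations against cells in 96-well plates for 48 hours. GI50: concentration for 50% inhibition of growth.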 Activity calls are given as the source filed them. Cut-off read from the data, not from the text of the source: active = GI50 up to about 1.1 µM and inactive = higher.
What was measured:
Experiment in all cases: NCI anticancer screen, dose series, 48 h
[1] = system: K562
[2] = system: HT-29
[3] = system: COLO 205
[4] = system: SNB-19
[5] = system: NCI/ADR-RES
[6] = system: NCI-H226
[7] = system: HOP-92
[8] = system: IGROV-1
[9] = system: CAKI-1
[10] = system: HCT-15
[11] = system: SF-268
[12] = system: NCI-H23
[13] = system: LOX IMVI
[14] = system: HL-60
[15] = system: SK-MEL-28
[16] = system: 786-0
[17] = system: HOP-62
[18] = system: MDA-N
[19] = system: DU-145
[20] = system: KM12

Measured: GI50

CC(C)(CCC(C)(C)c1ccccc1)c1ccccc1
inactive: [1] 21.8 µM | [2] 14.5 µM | [3] 18.1 µM | [4] 18.3 µM | [5] 19.5 µM | [6] 20.7 µM | [7] 19 µM | [8] 24.9 µM | [9] 22.5 µM | [11] 17.3 µM | [12] 18.2 µM | [13] 17.5 µM | [14] 16.3 µM | [15] 20 µM | [16] 15.7 µM | [17] 17.4 µM | [18] 22.2 µM | [19] 18.4 µM | [20] 15.3 µM
20.9 µM: [10]

CN(C)CCCn1c(Cn2nc3ccccc3n2)nc2cc(C(F)(F)F)ccc21
30.1 µM: [10]
inactive: [1] 16.5 µM | [2] 19.7 µM | [3] 15.3 µM | [4] 50.7 µM | [5] 23.4 µM | [6] 56 µM | [7] 8.71 µM | [8] 29 µM | [9] 32.6 µM | [11] 42 µM | [12] 34 µM | [13] 16.9 µM | [14] 1.69 µM | [15] 17.4 µM | [16] 19.3 µM | [17] 64.4 µM | [18] 18.8 µM | [19] 29.7 µM | [20] 22.8 µM

Cc1ccc2nc(-c3ccc(N)c(Br)c3)sc2c1
7.01 µM: [10]
inactive: [1] 17.4 µM | [2] 40.7 µM | [3] 55.8 µM | [4] 81.8 µM | [5] 52.1 µM | [6] 17.5 µM | [7] 19.7 µM | [9] 34.8 µM | [11] 10.6 µM | [12] 22.2 µM | [13] 13.2 µM | [14] 17.4 µM | [15] > 100 µM | [16] 29.1 µM | [17] 13.5 µM | [18] > 100 µM | [19] 31.5 µM | [20] 7.41 µM

N=c1oc2ccc(Cl)cc2cc1C(N)=O
inactive: [1] > 100 µM | [2] 38.5 µM | [3] 36.6 µM | [4] 26.7 µM | [5] 34.4 µM | [6] 28.2 µM | [7] 36 µM | [8] 21.4 µM | [9] 34.1 µM | [11] 26.3 µM | [12] 22.4 µM | [13] 31.8 µM | [14] 54.2 µM | [15] 29 µM | [16] 24.8 µM | [18] 25.1 µM | [19] 35.9 µM | [20] 24.2 µM
29.4 µM: [10]

COc1c(C)c(OC)c(C(=O)CC(C)C)c(OC)c1C
inactive: [2] 63.4 µM | [3] > 100 µM | [4] 24.9 µM | [5] 52.6 µM | [6] > 100 µM | [7] > 100 µM | [8] > 100 µM | [9] > 100 µM | [11] > 100 µM | [12] 83 µM | [13] 62.7 µM | [14] 7.01 µM | [15] > 100 µM | [16] > 100 µM | [17] > 100 µM | [18] > 100 µM | [19] > 100 µM | [20] 74 µM
37.1 µM: [10]

CC(=O)Nc1cccc(N2C(=O)/C(=C\c3cccc(Oc4ccccc4)c3)S(=O)(=O)C2c2ccccc2)c1 (stereo unspecified)
> 100 µM: [10]
inactive: [1] 26.7 µM | [2] 64.9 µM | [3] 59.7 µM | [4] > 100 µM | [5] 55.5 µM | [6] > 100 µM | [7] 43.3 µM | [8] 50.7 µM | [9] 53.5 µM | [12] 97.7 µM | [13] 27.7 µM | [14] 18.9 µM | [15] > 100 µM | [16] > 100 µM | [17] > 100 µM | [18] 33.1 µM | [19] > 100 µM | [20] 68.5 µM

N=C(N)NS(=O)(=O)c1ccc(NC(=O)c2ccc3nc4ccccc4c(N)c3c2)cc1
inactive: [1] > 100 µM | [2] > 100 µM | [3] > 100 µM | [4] > 100 µM | [5] > 100 µM | [6] > 100 µM | [7] > 100 µM | [8] > 100 µM | [9] > 100 µM | [11] > 100 µM | [12] > 100 µM | [13] > 100 µM | [14] > 100 µM | [15] > 100 µM | [16] > 100 µM | [17] > 100 µM | [18] > 100 µM | [19] > 100 µM | [20] 74.6 µM
> 100 µM: [10]

CCOC(=O)c1cc(=O)c2ccnc3c2n1CCS3
inactive: [2] > 100 µM | [3] > 100 µM | [4] 50.2 µM | [5] > 100 µM | [6] > 100 µM | [7] 66.4 µM | [8] 40.6 µM | [9] > 100 µM | [11] > 100 µM | [12] 32.1 µM | [13] 57.4 µM | [14] > 100 µM | [15] > 100 µM | [16] > 100 µM | [17] 48.5 µM | [18] > 100 µM | [19] > 100 µM | [20] 40.9 µM
> 100 µM: [10]

CCOC(=O)NC(Nc1c(F)c(F)c(F)c(F)c1F)(C(F)(F)F)C(F)(F)F
inactive: [1] > 100 µM | [3] > 100 µM | [4] > 100 µM | [5] > 100 µM | [6] > 100 µM | [7] > 100 µM | [8] > 100 µM | [9] > 100 µM | [11] > 100 µM | [12] > 100 µM | [13] > 100 µM | [14] > 100 µM | [15] > 100 µM | [16] > 100 µM | [17] > 100 µM | [18] > 100 µM | [19] > 100 µM | [20] > 100 µM
> 100 µM: [10]

Cn1ccc(C(=O)N2CCSC2=S)c(OCc2ccccc2)c1=O
inactive: [1] > 100 µM | [2] > 100 µM | [3] > 100 µM | [4] > 100 µM | [5] > 100 µM | [6] > 100 µM | [7] 79.1 µM | [9] 72.3 µM | [11] > 100 µM | [12] > 100 µM | [13] > 100 µM | [14] 54.8 µM | [15] > 100 µM | [16] > 100 µM | [18] > 100 µM | [19] > 100 µM | [20] > 100 µM
> 100 µM: [10]

O=c1n(CC2CO2)c(=O)n(CC2CO2)c(=O)n1CC1CO1 (stereo unspecified) [TEROXIRONE]
inactive: [1] 22.8 µM | [2] 13.9 µM | [3] 14.3 µM | [4] 26.2 µM | [5] 34 µM | [6] 26.6 µM | [7] 39.3 µM | [8] 39.2 µM | [9] 8.04 µM | [11] 14.3 µM | [12] 16.7 µM | [13] 14.1 µM | [14] 1.55 µM | [15] 54.5 µM | [16] 6.22 µM | [17] 20.3 µM | [18] 20.8 µM | [19] 6.97 µM | [20] 56.1 µM

Source: ChEMBL document CHEMBL1201862, “PubChem BioAssay data set” (2004)
